“Also recorded” adds a separate entry of the source.
Key:
[1] = tested on: startle reflex and its prepulse inhibition in rats pretreated with the psychostimulant phencyclidine (PCP); assay: PCP-induced PPI disruption, startle reflex and prepulse inhibition in rats pretreated with phencyclidine; assay type: in vivo; conditions: FIG. 2; for effect on PCP-disrupted prepulse inhibition (PPI): antagonist 20 min and PCP 10 min before measurement, vs vehicle+PCP
Experimental: (§1) In order to study the effect of alpha2-antagonists on startle reflex and its prepulse-inhibition, groups of rats (n=10/group) were pre-treated with the alpha2C-antagonist or vehicle 20 min before measurement of the acoustic startle reactivity and PPI in a test system designed for startle studies (SR-LAB, San Diego Instruments, CA, USA). In a subsequent experiment the effects of the alpha2-adrenoceptor subtype selective alpha2C-antagonist and or the subtype non-selective antagonist atipamezole (Haapalinna, A. et al., Naunyn-Schmiedeberg's Arch. Pharmacol. 356 (1997) 570-582) on PCP-induced PPI-disruption was studied. The antagonists were given 20 min, and PCP or vehicle 10 min before start of the startle measurements. The method otherwise corresponds to the procedure described in Sallinen, J. et al., J. Neurosci. 18 (1998) 3035-42.

[2] = tested on: startle reflex and its prepulse inhibition in rats; assay: Acoustic startle reactivity and prepulse inhibition (PPI) in rats; assay type: in vivo; conditions: compound given 20 min before measurement, vs vehicle, FIG. 1
Experimental: as §1

Row | Structure (SMILES) | effect on startle reactivity per se ([1]; PCP experiment) | effect on PCP-disrupted prepulse inhibition (PPI) [1] | effect on prepulse inhibition (PPI, sensorimotor gating) [2] | effect on startle reflex (startle reactivity to intense pulses without prepulses) [2] | effect of PCP on prepulse inhibition (PPI) ([1]; PCP given 10 min before measurement)
1 | CCC1(c2cnc[nH]2)Cc2ccccc2C1 [atipamezole] | increased significantly the startle reactivity per se | had no effect on the PPI phenomenon | – | – | –
2 | CN1CCN(c2ccc(Nc3c4ccccc4nc4ccccc34)cc2)CC1 [JP-1302, acridin-9-yl-[4-(4-methylpiperazin-1-yl)-phenyl]amine] | – | effectively counteracted; also recorded: especially clearly seen in the presence of PCP | enhanced sensorimotor gating (prepulse inhibition %); also recorded: increased PPI dose-dependently and effectively | without significantly affecting the startle reactivity; also recorded: did not affect the startle reflex per se | –
3 | c1ccc(C2(N3CCCCC3)CCCCC2)cc1 [PCP, phencyclidine] | – | – | – | – | clearly disrupted the PPI

— patent US20050203100A1, “Use of an alfa2-adrenoreceptor antagonist for cns-related diseases” (priority 2002, published 2005)
